Square brackets hold non-standard residues; d marks the D form. Ends that are not written are not given here. Peptide text beside a SMILES is read from it.
Assays:
MDA-MB-231 cells = assay: Cell viability (Cell-Titer Glo) in MDA-MB-231 breast cancer cells; type: cell-based, human; conditions: overnight, different concentrations
Method: (§1) Human cell lines including HeLa, HEK293, MCF7, MDA-MB-231, CHO-K1, OPM-2, and WI-38 were obtained from American Type Culture Collection. AML2 and AML3 cells were purchased from Deutsche Sammlung von Mikroorganismen und Zellkulturen. HCT116 p53+/+ and p53−/− cells were kindly given by Dr. Bert Vogelstein. Primary human foreskin fibroblasts (HFF) were obtained from Dr. Mark Stinski. […] MDA-MB-231 and OPM-2 cells were cultured in RPMI-1640 (Gibco) containing 10% FBS and 1% penicillin/streptomycin. All cells were routinely maintained in a 37° C. incubator with 5% CO2.
(§2) Cells were plated in clear-bottomed white walled 96-well plates (Corning) and incubated overnight. Cells were treated with indicated peptides in 1% FBS-containing media for overnight or indicated timings at 37° C. Cell viability was measured with CellTiter-Glo reagent (Promega) according to the manufacturer's instructions. For cytotoxicity assay, cells were plated in black walled 96-well plates (Corning) to allow them to adhere overnight. Upon treatment with a pan-caspase inhibitor, z-VAD-Fmk ([…]) (Sigma) and subsequent treatment with LTV-tagged peptides, cytotoxicity induced was determined by CellTox cytotoxicity assay (Promega) 30 minutes after addition of peptides according to the manufacturer's instructions. Luminescence was determined using an Infinite 200 multiplate reader (Tecan).

MCF7 cells [1] = assay: Cell viability (Cell-Titer Glo) in MCF7 breast cancer cells; type: cell-based, human; conditions: overnight, different concentrations
Method: as §1, §2

HeLa cells = assay: Cell viability (Cell-Titer Glo) in HeLa cells; type: cell-based, human; conditions: overnight, various concentrations
Method: as §1, §2

HEK293 cells = assay: Cell viability (Cell-Titer Glo) in HEK293 cells; type: cell-based, human; conditions: HEK293 normal cells; overnight, various concentrations
Method: as §1, §2

[2] = tested on: human foreskin fibroblasts (HFF); assay: Cell viability (Cell-Titer Glo) in human foreskin fibroblasts; type: cell-based; conditions: HFF normal fibroblasts; overnight, various concentrations
Method: as §1, §2

HCT116 (p53 WT) cells [3] = assay: Cell viability (Cell-Titer Glo) in HCT116 (p53 WT); type: cell-based, human; conditions: overnight, various concentrations
Method: as §1, §2

HCT116 (p53 KO) cells [4] = assay: Cell viability (Cell-Titer Glo) in HCT116 (p53 KO); type: cell-based, human; conditions: overnight, various concentrations
Method: as §1, §2

MCF7 cells [5] = assay: CellTox cytotoxicity assay with or without z-VAD-Fmk; type: cell-based; conditions: 30 μM, thirty minutes at 37° C.
Method: HCT116 (p53 WT) and HCT116 (p53 KO) cells were cultured on glass slides overnight, treated with vehicle control (0.5% dimethyl sulfoxide (DMSO)) or the indicated FGF peptides (30 μM). Time-lapse DIC imaging highlights dynamic morphological changes in treated HCT116 cells by spinning disk confocal microscopy. […] In contrast, FGF-BR peptide rapidly induces drastic changes to the cell morphology with rupturing of the plasma membrane accompanied with damages to the nuclear membrane and abnormalities to the nucleolus in both cell types. (B) cytotoxicity fluorescence plots of breast cancer cells MCF7 showing the effect of pan-caspase inhibitor z-VAD-Fmk on cells treated with LTV-tagged BR peptide. […] Data representative of at least three independent experiments performed in triplicate were shown with values expressed as mean±SD.
as §2, with “Cells were treated with indicated peptides in 1% FBS-containing media for overnight or indicated timings at 37° C.” left out, “For cytotoxicity assay, cells were plated in black walled 96-well plates (Corning) to allow them to adhere overnight.” left out

NPM [6] = target: T1, NPM (Homo sapiens, UniProt P06748); assay: Immunofluorescence of NPM sub-cellular localization, HCT116 (p53 KO); type: cell-based; conditions: 30 μM
T1 construct: FGF-tagged BR peptide alters the sub-cellular localization and protein level of endogenous NPM; endogenous in cells; host or cells: HCT116 (p53 WT) and HCT116 (p53 KO)
T1 sequence (P06748 whole entry): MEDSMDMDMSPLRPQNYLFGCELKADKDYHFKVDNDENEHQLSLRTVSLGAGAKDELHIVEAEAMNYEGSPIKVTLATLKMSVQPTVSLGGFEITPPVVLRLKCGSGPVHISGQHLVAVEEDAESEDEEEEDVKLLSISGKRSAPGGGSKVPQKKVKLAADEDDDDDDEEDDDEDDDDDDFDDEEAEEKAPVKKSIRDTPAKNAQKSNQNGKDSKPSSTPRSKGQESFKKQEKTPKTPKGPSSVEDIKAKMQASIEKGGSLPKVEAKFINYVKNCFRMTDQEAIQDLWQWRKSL
Method: (§3) (A) representative immunofluorescence images showing the sub-cellular localization of α-NPM (bar represents 10 μm). HCT116 (p53 WT) and HCT116 (p53KO) cells were cultured on glass slides overnight, treated with FGF-X13 or FGF-BR (30 μM). Cells treated with FGF-X13 peptide or vehicle, DMSO (0.5%), was used as controls. Treated cells were immunostained with an anti-NPM antibody and analyzed by laser scanning confocal microscopy (Zeiss). Nuclei were visualized by staining with 4′,6-diamidino-2-phenylindole (DAPI).
(§4) For staining with anti-NPM, cultured cells were fixed in 10% neutral buffered formalin (Sigma) for 10 min, and then in methanol for 10 min, washed in PBS and incubated with blocking buffer (PBS containing 0.5% bovine serum albumin) for 1 hour prior to incubation with a mouse anti-NPM antibody (Invitrogen) in blocking buffer for overnight at 4° C. Cells were then incubated with Alexa Fluor 488-conjugated secondary antibody (Jackson Immuno Research Laboratories) for 1 hour, washed three times with PBS and counterstained with 4′,6-diamidino-2-phenylindole (DAPI)-containing mounting solution (Vectashield). Stained cells were examined with a LSM 510 confocal microscope using a 63× objective lens (Zeiss).

NPM [7] = target: T1, NPM; assay: Immunofluorescence of NPM sub-cellular localization, HCT116 (p53 WT); type: cell-based; conditions: 30 μM
Method: as §3, §4

[8] = tested on: undifferentiated 3T3 mouse fibroblast cells
Method: (§7) 2.5×10^4 cells/ml of mouse fibroblast cells 3T3 were cultured in gelatin coated plates in Dulbecco's Modified Eagle Medium (DMEM) supplemented with 10% fetal bovine serum (FBS) and 1% penicillin/streptomycin (Gibco) to reach 100% confluent. The cells were then maintained at 100% confluency by supplementing with fresh media in a 37° C. incubator with 5% CO2 for 3 days. For induction, cells were then cultured in DMI Induction Media (which is DMEM supplemented with 10% fetal bovine serum, 1% penicillin/streptomycin, 0.1% 3-isobutyl-1-methylxanthine (sigma), 0.1% insulin (sigma) and 0.1% dexamethasone (sigma)) for 48 hours. The cells were then cultured in Insulin Induction Media (which is DMEM supplemented with 10% fetal bovine serum, 1% penicillin/streptomycin and 0.1% insulin). The insulin induction media was changed every 2 days until the cells were differentiated to adipose cells.
(§8) A D-form BR peptide with the sequence of [sequence] was tagged to a fat tissue targeting peptide of the sequence [sequence] (ATS peptide, SEQ ID NO: 39) to generate the ATS-BRD peptide of the sequence [sequence]([sequence])D (SEQ ID NO: 40). Both undifferentiated 3T3 cells and differentiated adipose cells were treated with the ATS-BRD peptide. ATS-tagged KLAD peptide was used as a positive control.

[9] = tested on: differentiated adipose cells (from 3T3)
Method: as §7, §8

HCT116 (p53 WT) cells [10] = assay: Time-lapse DIC live cell imaging, HCT116 (p53 WT); type: cell-based, human; conditions: 30 μM, within minutes
Method: (§5) HCT116 (p53 WT) and HCT116 (p53 KO) cells were cultured on glass slides overnight, treated with vehicle control (0.5% dimethyl sulfoxide (DMSO)) or the indicated FGF peptides (30 μM). Time-lapse DIC imaging highlights dynamic morphological changes in treated HCT116 cells by spinning disk confocal microscopy. […] In contrast, FGF-BR peptide rapidly induces drastic changes to the cell morphology with rupturing of the plasma membrane accompanied with damages to the nuclear membrane and abnormalities to the nucleolus in both cell types. (B) cytotoxicity fluorescence plots of breast cancer cells MCF7 showing the effect of pan-caspase inhibitor z-VAD-Fmk on cells treated with LTV-tagged BR peptide. LTV is a breast cancer cell targeting peptide. MCF7 cells were incubated with or without z-VAD-Fmk (for 90 min) and then with indicated LTV-tagged peptides (30 μM) for thirty minutes at 37° C. Cells treated with LTV-X13 peptide (SEQ ID NO: 14) or vehicles, DMSO (0.5%), were used as negative controls. Treated cells were subjected to the cytotoxicity assay as described in Example 9—Materials and Methods. Data representative of at least three independent experiments performed in triplicate were shown with values expressed as mean±SD.
(§6) The mechanism of cell death induced by the HEXIM1 BR peptide was examined. […]

HCT116 (p53 KO) cells [11] = assay: Time-lapse DIC live cell imaging, HCT116 (p53 KO); type: cell-based, human; conditions: 30 μM, within minutes
Method: as §5, §6

Compound: LTV-BR-RRR12: breast cancer targeting peptide LTV fused to BR-RRR12 (LTVSPWYGCGQLGRRRHRRRPSRRRRHW)
- effect on cell viability (MDA-MB-231 cells): anti-proliferation effects
- effect on cell viability (MCF7 cells [1]): anti-proliferation effects

Compound: CC(C)C[C@H](NC(=O)[C@H](C)NC(=O)[C@H](CC(C)C)NC(=O)[C@H](CC(C)C)NC(=O)[C@@H](NC(=O)[C@H](C)NC(=O)[C@@H]1CCCN1C(=O)[C@H](CC(C)C)NC(=O)[C@H](CC(C)C)NC(=O)[C@H](C)NC(=O)[C@@H](NC(=O)[C@H](C)NC(=O)[C@H](C)N)C(C)C)C(C)C)C(=O)N[C@@H](CC(C)C)C(=O)N[C@@H](C)C(=O)N1CCC[C@H]1C(=O)N[C@@H](CCC(N)=O)C(=O)N[C@@H](CC(C)C)C(=O)NCC(=O)N[C@@H](CCCCN)C(=O)N[C@@H](CCCCN)C(=O)N[C@@H](CCCCN)C(=O)N[C@@H](Cc1c[nH]cn1)C(=O)N[C@@H](CCCNC(=N)N)C(=O)N[C@@H](CCCNC(=N)N)C(=O)N[C@@H](CCCNC(=N)N)C(=O)N1CCC[C@H]1C(=O)N[C@@H](CO)C(=O)N[C@@H](CCCCN)C(=O)N[C@@H](CCCCN)C(=O)N[C@@H](CCCCN)C(=O)N[C@@H](CCCNC(=N)N)C(=O)N[C@@H](Cc1c[nH]cn1)C(=O)N[C@@H](Cc1c[nH]c2ccccc12)C(=O)O [FGF-BR] (H-AAVALLPAVLLALLAPQLGKKKHRRRPSKKKRHW-OH)
- cytotoxicity (cell viability) (HeLa cells): Cytotoxicity was also observed
- cytotoxicity (cell viability) (HEK293 cells): Comparable cytotoxicity
- cytotoxicity (cell viability) [2]: Comparable cytotoxicity

Compound: FGF-BR-ILAA: FGF-fused BR peptide with KHRR motif mutated to ILAA (AAVALLPAVLLALLAPQLGKKILAARPSKKKRHW)
- cell death / cell viability (HCT116 (p53 WT) cells [3]): still maintained its killing ability
- cell death / cell viability (HCT116 (p53 KO) cells [4]): still maintained its killing ability

Compound: CC(C)C[C@H](NC(=O)[C@H](CCCCN)NC(=O)CNC(=O)[C@H](CS)NC(=O)CNC(=O)[C@H](Cc1ccc(O)cc1)NC(=O)[C@H](Cc1c[nH]c2ccccc12)NC(=O)[C@@H]1CCCN1C(=O)[C@H](CO)NC(=O)[C@@H](NC(=O)[C@@H](NC(=O)[C@@H](N)CC(C)C)[C@@H](C)O)C(C)C)C(=O)N[C@@H](C)C(=O)N[C@@H](CCCCN)C(=O)N[C@@H](CC(C)C)C(=O)N[C@@H](C)C(=O)N[C@@H](CCCCN)C(=O)N[C@@H](CCCCN)C(=O)N[C@@H](CC(C)C)C(=O)N[C@@H](C)C(=O)N[C@@H](CCCCN)C(=O)N[C@@H](CC(C)C)C(=O)N[C@@H](C)C(=O)N[C@@H](CCCCN)C(=O)O [LTV-KLA, reference compound] (H-LTVSPWYGCGKLAKLAKKLAKLAK-OH)
- cytotoxicity (cell viability) [2]: non-specific killing

Compound: FGF-BR-RRR12: FGF-fused BR peptide with all six HDM2 ubiquitinating lysine residues mutated to arginine (AAVALLPAVLLALLAPQLGRRRHRRRPSRRRRHW)
- cell death / cell viability (HCT116 (p53 WT) cells [3]): stronger cell toxicity when compared to the wild-type FGF-BR peptide
- cell death / cell viability (HCT116 (p53 KO) cells [4]): stronger cell toxicity when compared to the wild-type FGF-BR peptide

Compound: CC(C)C[C@H](NC(=O)[C@H](CCC(N)=O)NC(=O)CNC(=O)[C@H](CS)NC(=O)CNC(=O)[C@H](Cc1ccc(O)cc1)NC(=O)[C@H](Cc1c[nH]c2ccccc12)NC(=O)[C@@H]1CCCN1C(=O)[C@H](CO)NC(=O)[C@@H](NC(=O)[C@@H](NC(=O)[C@@H](N)CC(C)C)[C@@H](C)O)C(C)C)C(=O)NCC(=O)N[C@@H](CCCCN)C(=O)N[C@@H](CCCCN)C(=O)N[C@@H](CCCCN)C(=O)N[C@@H](Cc1c[nH]cn1)C(=O)N[C@@H](CCCNC(=N)N)C(=O)N[C@@H](CCCNC(=N)N)C(=O)N[C@@H](CCCNC(=N)N)C(=O)N1CCC[C@H]1C(=O)N[C@@H](CO)C(=O)N[C@@H](CCCCN)C(=O)N[C@@H](CCCCN)C(=O)N[C@@H](CCCCN)C(=O)N[C@@H](CCCNC(=N)N)C(=O)N[C@@H](Cc1c[nH]cn1)C(=O)N[C@@H](Cc1c[nH]c2ccccc12)C(=O)O [LTV-BR] (H-LTVSPWYGCGQLGKKKHRRRPSKKKRHW-OH)
- cytotoxicity fluorescence (MCF7 cells [5]): significant cytotoxic effect
- cytotoxicity (cell viability) [2]: does not show such non-specific cytotoxicity

Compound: KLA (KLAKLAKKLAKLAK) [reference compound]
- effect on cell viability (MDA-MB-231 cells): non-specific killing

Compound: FGF-X13: negative control peptide, FGF-tagged X13 (AAVALLPAVLLALLAPMPFSTGKRIMLGE) [reference compound]
- cell death / cell viability (HCT116 (p53 WT) cells [3]): no effects
- sub-cellular localization of NPM (NPM [6]): Normal nucleolar localization of NPM
- sub-cellular localization of NPM (NPM [7]): Normal nucleolar localization of NPM
- cell death / cell viability (HCT116 (p53 KO) cells [4]): no effects

Compound: CKGGRAKDCGG(QLGKKKHRRRPSKKKRHW)D (CKGGRAKDCGG[dQ][dL]G[dK][dK][dK][dH][dR][dR][dR][dP][dS][dK][dK][dK][dR][dH][dW]; cysteine pairing not given here) [ATS-BRD]
- cytotoxic effect (cell viability) [8]: no cytotoxic effect
- cytotoxic effect (cell viability) [9]: significant cytotoxic effect

Compound: QLGKKKHRRRPSKKKRHW (listed as Homo sapiens) [BR, untagged HEXIM1 basic region peptide]
- effect on cell viability (MDA-MB-231 cells): remained highly viable
- effect on cell viability (MCF7 cells [1]): no effect on cell viability

Compound: QLGRRRHRRRPSRRRRHW (QLGRRRHRRRPSKKKRHW) [BR-RRR12, BR mutant in which all six HDM2 ubiquitinating lysine residues were mutated to arginine]
- effect on cell viability (MDA-MB-231 cells): remained highly viable
- effect on cell viability (MCF7 cells [1]): no effect on cell viability

Compound: LTV-X13: LTV-tagged X13 negative control peptide (LTVSPWYGCGMPFSTGKRIMLGE) [reference compound]
- effect on cell viability (MDA-MB-231 cells): no effects were detected
- effect on cell viability (MCF7 cells [1]): no effects were detected

Compound: X13: untagged negative control peptide (MPFSTGKRIMLGE) [reference compound]
- effect on cell viability (MDA-MB-231 cells): no effect on cell viability
- effect on cell viability (MCF7 cells [1]): no effect on cell viability

Compound: AAVALLPAVLLALLAP [FGF, cell membrane-translocating peptide derived from Kaposi fibroblast growth factor]
- morphological changes (HCT116 (p53 WT) cells [10]): No effects were detected
- morphological changes (HCT116 (p53 KO) cells [11]): No effects were detected

From patent US10500288B2, “Cytotoxic HEXIM1 peptides and uses thereof” (AGENCY FOR SCIENCE, TECHNOLOGY AND RESEARCH, priority 2015, dated 2019)
